Converted amounts (≈) assume the structure as drawn. Read-outs that look alike come from different tables or passages of the source.
Columns and labels:
[1] = tested on: Mycobacterium tuberculosis H37Rv; assay: Mycobacterium tuberculosis H37Rv Inhibition Assay (Whole Cell Assay); assay type: cell-based; details: ATCC 25618 / H37Rv, H37Rv strain (ATCC25618), Middlebrook 7H9, six days at 37° C., resazurin fluorescence after 48 hours
[2] = target: T1, Mycobacterium tuberculosis InhA (Mycobacterium tuberculosis, UniProt P9WGR1); assay: Mycobacterium tuberculosis InhA Inhibition Assay (Enzyme Assay); assay type: biochemical; details: 5 nM InhA, 50 μM DDCoA, 50 μM NADH, PIPES buffer pH 6.8, initial velocities of NADH consumption
T1 construct: made in house; host or cells: E. coli
Experimental: Mycobacterium tuberculosis InhA Inhibition Assay (Enzyme Assay)
InhA is able to reduce 2-trans enoyl-CoA esters with concomitant oxidation of NADH to NAD^+. The assay format is based on the kinetic detection of NADH consumption.
Assay for InhA inhibition is carried out with mycobacterium recombinant protein expressed and purified form E. coli. Standard assay conditions for the determination of kinetic constants and inhibitors activity use 5 nM of InhA, 50 μM of Dodecenoyl-CoA synthesized and purified as described by Quernard et al (DDCoA) and 50 μM of NADH as substrates, and it is carried out in 30 mM PIPES buffer pH 6.8, containing 0.05% of BSA. […] Triclosan is used as positive control in every experiment. One μl of compounds is added to the wells containing 25 μl of the DDCoA+NADH mix, the reaction is started by adding 50 μl of the enzyme solution. Fluorescence from NADH is followed at room temperature during 20 minutes in a fluorescent plate reader (excitation at 340 nm; emission at 480 nm). IC50 values are determined using initial velocities of NADH consumption.
Quernard A, Sacchettini J C, Dessen A, et al. Enzymatic characterization of the target for isoniazid in Mycobacterium tuberculosis. Biochemistry 1995; 34:8235-41.

T1 sequence (P9WGR1 whole entry, looked up): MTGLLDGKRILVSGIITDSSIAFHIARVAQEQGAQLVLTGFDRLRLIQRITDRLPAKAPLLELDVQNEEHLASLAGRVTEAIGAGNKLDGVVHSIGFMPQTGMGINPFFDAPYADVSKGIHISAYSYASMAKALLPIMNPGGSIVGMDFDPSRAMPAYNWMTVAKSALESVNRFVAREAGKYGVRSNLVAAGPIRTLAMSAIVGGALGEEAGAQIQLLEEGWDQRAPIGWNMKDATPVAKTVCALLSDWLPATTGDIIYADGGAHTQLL

Cc1cc(C)n(C(C)c2nnc(Nc3ccn(Cc4ccc(F)cc4Cl)n3)s2)n1 (centres unmarked) [Example 17, N-{1-[(2-chloro-4-fluorophenyl)methyl]-1H-pyrazol-3-yl}-5-[1-(3,5-dimethyl-1H-pyrazol-1-yl)ethyl]-1,3,4-thiadiazol-2-amine]
MIC [1]: > 10 µM | IC50 ([2]; IC50 value): 116 to 232 nM

Cc1ccn(C(C)c2nnc(Nc3ccn(Cc4ccc(F)cc4Cl)n3)s2)n1 (centres unmarked) [Example 18, N-{1-[(2-chloro-4-fluorophenyl)methyl]-1H-pyrazol-3-yl}-5-[1-(3-methyl-1H-pyrazol-1-yl)ethyl]-1,3,4-thiadiazol-2-amine]
MIC [1]: > 10 µM | IC50 ([2]; IC50 value): 120 to 239 nM

Cc1cc(C)n(C(C)c2nnc(Nc3cc(C)n(Cc4c(F)cccc4Cl)n3)s2)n1 (centres unmarked) [Example 19, N-{1-[(2-chloro-6-fluorophenyl)methyl]-5-methyl-1H-pyrazol-3-yl}-5-[1-(3,5-dimethyl-1H-pyrazol-1-yl)ethyl]-1,3,4-thiadiazol-2-amine]
MIC [1]: 1 to 4 µM (≈ 0.446 to 1.78 µg/mL) | IC50 ([2]; read-out: IC50 value): < 112 nM

Cc1cc(C)n(C(C)c2nnc(Nc3ccn(Cc4ccccc4C)n3)s2)n1 (centres unmarked) [Example 20, 5-[1-(3,5-dimethyl-1H-pyrazol-1-yl)ethyl]-N-{1-[(2-methylphenyl)methyl]-1H-pyrazol-3-yl}-1,3,4-thiadiazol-2-amine]
MIC [1]: 1 to 4 µM (≈ 0.394 to 1.57 µg/mL) | IC50 ([2]; read-out: IC50 value): < 127 nM

Cc1cc(C)n(C(C)c2nnc(Nc3ccn(Cc4ccccc4)n3)s2)n1 (centres unmarked) [Example 21, 5-[1-(3,5-dimethyl-1H-pyrazol-1-yl)ethyl]-N-[1-(phenylmethyl)-1H-pyrazol-3-yl]-1,3,4-thiadiazol-2-amine]
MIC [1]: 4 to 10 µM (≈ 1.52 to 3.79 µg/mL) | IC50 ([2]; read-out: IC50 value): < 132 nM

Cc1cc(C)n(C(C)c2nnc(Nc3ccn(Cc4c(Cl)ccc(C)c4F)n3)s2)n1 (centres unmarked) [Example 22, N-{1-[(6-chloro-2-fluoro-3-methylphenyl)methyl]-1H-pyrazol-3-yl}-5-[1-(3,5-dimethyl-1H-pyrazol-1-yl)ethyl]-1,3,4-thiadiazol-2-amine]
MIC [1]: 1 to 4 µM (≈ 0.446 to 1.78 µg/mL) | IC50 ([2]; read-out: IC50 value): < 112 nM

Cc1cc(C)n(C(C)c2nnc(Nc3ccn(Cc4c(F)ccc(C)c4Cl)n3)s2)n1 (centres unmarked) [Example 23, N-{1-[(2-chloro-6-fluoro-3-methylphenyl)methyl]-1H-pyrazol-3-yl}-5-[1-(3,5-dimethyl-1H-pyrazol-1-yl)ethyl]-1,3,4-thiadiazol-2-amine]
MIC [1]: ≤ 1 µM | IC50 ([2]; read-out: IC50 value): < 112 nM

Cc1cc(C)n(C(C)c2nnc(Nc3ccn(Cc4cccc(C)c4F)n3)s2)n1 (centres unmarked) [Example 24, 5-[1-(3,5-dimethyl-1H-pyrazol-1-yl)ethyl]-N-{1-[(2-fluoro-3-methylphenyl)methyl]-1H-pyrazol-3-yl}-1,3,4-thiadiazol-2-amine]
MIC [1]: ≤ 1 µM | IC50 ([2]; read-out: IC50 value): < 122 nM

Cc1csc(C(C)c2nnc(Nc3ccn(Cc4cccc(C)c4F)n3)s2)n1 (centres unmarked) [Example 25, N-{1-[(2-fluoro-3-methylphenyl)methyl]-1H-pyrazol-3-yl}-5-[1-(4-methyl-1,3-thiazol-2-yl)ethyl]-1,3,4-thiadiazol-2-amine]
MIC [1]: 1 to 4 µM (≈ 0.415 to 1.66 µg/mL) | IC50 ([2]; read-out: IC50 value): < 121 nM

Cc1cc(C)n(C(C)c2nnc(Nc3ccn(Cc4cc(N)ccc4Cl)n3)s2)n1 (centres unmarked) [Example 26, N-{1-[(5-amino-2-chlorophenyl)methyl]-1H-pyrazol-3-yl}-5-[1-(3,5-dimethyl-1H-pyrazol-1-yl)ethyl]-1,3,4-thiadiazol-2-amine]
MIC [1]: > 10 µM | IC50 ([2]; read-out: IC50 value): < 117 nM

Cc1cc(C)n(C(C)c2nnc(Nc3ccn(Cc4cccc(N)c4C)n3)s2)n1 (centres unmarked) [Example 27, N-{1-[(3-amino-2-methylphenyl)methyl]-1H-pyrazol-3-yl}-5-[1-(3,5-dimethyl-1H-pyrazol-1-yl)ethyl]-1,3,4-thiadiazol-2-amine]
MIC [1]: 4 to 10 µM (≈ 1.63 to 4.09 µg/mL) | IC50 ([2]; read-out: IC50 value): < 122 nM

Cc1csc(C(C)c2nnc(Nc3ccn(Cc4c(F)cccc4Cl)n3)s2)n1 (centres unmarked) [Example 29, N-{1-[(2-chloro-6-fluorophenyl)methyl]-1H-pyrazol-3-yl}-5-[1-(4-methyl-1,3-thiazol-2-yl)ethyl]-1,3,4-thiadiazol-2-amine]
MIC [1]: 1 to 4 µM (≈ 0.435 to 1.74 µg/mL) | IC50 ([2]; read-out: IC50 value): < 115 nM

CC(c1nc(C(F)(F)F)cs1)c1nnc(Nc2ccn(Cc3c(F)cccc3Cl)n2)s1 (centres unmarked) [Example 31, N-{1-[(2-chloro-6-fluorophenyl)methyl]-1H-pyrazol-3-yl}-5-{1-[4-(trifluoromethyl)-1,3-thiazol-2-yl]ethyl}-1,3,4-thiadiazol-2-amine]
MIC [1]: > 10 µM | IC50 ([2]; read-out: IC50 value): < 102 nM

Cc1csc(Cc2nnc(Nc3ccn(Cc4c(F)cccc4Cl)n3)s2)n1 [Example 32, N-{1-[(2-chloro-6-fluorophenyl)methyl]-1H-pyrazol-3-yl}-5-[(4-methyl-1,3-thiazol-2-yl)methyl]-1,3,4-thiadiazol-2-amine]
MIC [1]: 4 to 10 µM (≈ 1.68 to 4.21 µg/mL) | IC50 ([2]; read-out: IC50 value): < 119 nM

Cc1csc(C(C)c2nnc(Nc3ccn(Cc4cccc(Cl)c4F)n3)s2)n1 (centres unmarked) [Example 33, N-{1-[(3-chloro-2-fluorophenyl)methyl]-1H-pyrazol-3-yl}-5-[1-(4-methyl-1,3-thiazol-2-yl)ethyl]-1,3,4-thiadiazol-2-amine]
MIC [1]: 1 to 4 µM (≈ 0.435 to 1.74 µg/mL) | IC50 ([2]; read-out: IC50 value): < 115 nM

Cc1cc(C)n(C(C)c2nnc(Nc3ccn(Cc4ccc(Cl)cc4)n3)s2)n1 (centres unmarked) [Example 34, N-{1-[(4-chlorophenyl)methyl]-1H-pyrazol-3-yl}-5-[1-(3,5-dimethyl-1H-pyrazol-1-yl)ethyl]-1,3,4-thiadiazol-2-amine]
MIC [1]: 4 to 10 µM (≈ 1.66 to 4.14 µg/mL) | IC50 ([2]; IC50 value): 121 to 242 nM

Cc1cc(C)n(C(C)c2nnc(Nc3ccn(Cc4ccc(C(F)(F)F)cc4)n3)s2)n1 (centres unmarked) [Example 35, 5-[1-(3,5-dimethyl-1H-pyrazol-1-yl)ethyl]-N-(1-{[4-(trifluoromethyl)phenyl]methyl}-1H-pyrazol-3-yl)-1,3,4-thiadiazol-2-amine]
MIC [1]: > 10 µM | IC50 ([2]; IC50 value): 223 to 1120 nM

Cc1cc(C)n(C(C)c2nnc(Nc3ccn(Cc4cc(F)ccc4Cl)n3)s2)n1 (centres unmarked) [Example 36, N-{1-[(2-chloro-5-fluorophenyl)methyl]-1H-pyrazol-3-yl}-5-[1-(3,5-dimethyl-1H-pyrazol-1-yl)ethyl]-1,3,4-thiadiazol-2-amine]
MIC [1]: 4 to 10 µM (≈ 1.73 to 4.32 µg/mL) | IC50 ([2]; read-out: IC50 value): < 116 nM

Cc1cc(C)n(Cc2cnc(Nc3ccn(Cc4c(F)cccc4Cl)n3)s2)n1 [Example 37, N-{1-[(2-chloro-6-fluorophenyl)methyl]-1H-pyrazol-3-yl}-5-[(3,5-dimethyl-1H-pyrazol-1-yl)methyl]-1,3-thiazol-2-amine]
MIC [1]: 4 to 10 µM (≈ 1.67 to 4.17 µg/mL) | IC50 ([2]; read-out: IC50 value): < 120 nM

Cc1ccn(Cc2nnc(Nc3ccn(Cc4c(F)cccc4Cl)n3)s2)n1 [Example 39, N-{1-[(2-chloro-6-fluorophenyl)methyl]-1H-pyrazol-3-yl}-5-[(3-methyl-1H-pyrazol-1-yl)methyl]-1,3,4-thiadiazol-2-amine]
MIC [1]: 1 to 4 µM (≈ 0.404 to 1.62 µg/mL) | IC50 ([2]; read-out: IC50 value): < 124 nM

Cc1cc([N+](=O)[O-])nn1C(C)c1nnc(Nc2ccn(Cc3ccccc3Cl)n2)s1 (centres unmarked) [Example 40, N-{1-[(2-chlorophenyl)methyl]-1H-pyrazol-3-yl}-5-[1-(5-methyl-3-nitro-1H-pyrazol-1-yl)ethyl]-1,3,4-thiadiazol-2-amine]
MIC [1]: 1 to 4 µM (≈ 0.445 to 1.78 µg/mL) | IC50 ([2]; read-out: IC50 value): < 112 nM

Cc1cc(C(F)F)nn1C(C)c1nnc(Nc2ccn(Cc3ccccc3Cl)n2)s1 (centres unmarked) [Example 41, N-{1-[(2-chlorophenyl)methyl]-1H-pyrazol-3-yl}-5-{1-[3-(difluoromethyl)-5-methyl-1H-pyrazol-1-yl]ethyl}-1,3,4-thiadiazol-2-amine]
MIC [1]: 4 to 10 µM (≈ 1.8 to 4.5 µg/mL) | IC50 ([2]; read-out: IC50 value): < 111 nM

Reference: patent US8524750B2, “(Pyrazol-3-yl)-1,3,4-thiadiazol-2-amine and (pyrazol-3-yl)-1,3,4-thiazol-2-amine compounds” (Glaxo Group Limited, priority 2009, dated 2013)
